Data: BindingDB's records for doi:10.1016/S0960-894X(01)80152-9 (1994)

Legend:
[1] = molecular target: Arachidonate 5-lipoxygenase (Cavia porcellus); experiment: In vitro 5-lipoxygenase inhibition in guinea pig PMNs was determined based on LTB4 production
[2] = molecular target: Arachidonate 5-lipoxygenase (Cavia porcellus); experiment: In vitro 5-lipoxygenase inhibition in guinea pig PMNs was determined based on 5-hydroxyeicosapentaenoic acid (5-HETE) production

| SMILES | IC50 [1] [µM] | IC50 [2] [µM] |
| --- | --- | --- |
| NC(=O)N(O)CC1=Cc2ccc(Oc3ccccc3)cc2OCC1 [N-hydroxy-N-[(8-phenoxy-2,3-dihydro-1-benzoxepin-4-yl)methyl]urea] | 0.21 | 0.18 |
| CNC(=O)N(O)CC1=Cc2cc(Oc3ccc(F)cc3)ccc2OCC1 [N-{[7-(4-fluorophenoxy)-2,3-dihydro-1-benzoxepin-4-yl]methyl}-N-hydroxy-N'-methylurea] | 0.13 | 0.1 |

Results, then the compound that gave them:

| IC50 [1] [µM] | IC50 [2] [µM] | SMILES |
| --- | --- | --- |
| 0.13 | 0.12 | NC(=O)N(O)CC1=Cc2cc(Oc3ccccc3)ccc2SCC1 [N-hydroxy-N-[(7-phenoxy-2,3-dihydro-1-benzothiepin-4-yl)methyl]urea] |
| 0.091 | 0.089 | NC(=O)N(O)CC1=Cc2cc(Oc3ccccc3)ccc2OCC1 [N-hydroxy-N-[(7-phenoxy-2,3-dihydro-1-benzoxepin-4-yl)methyl]urea] |
| 0.098 | 0.091 | NC(=O)N(O)CC1=Cc2cc(Oc3ccc(F)cc3)ccc2OCC1 [N-{[7-(4-fluorophenoxy)-2,3-dihydro-1-benzoxepin-4-yl]methyl}-N-hydroxyurea] |
